Source: patent publication US11413285B2, “PDE III inhibitors for treatment of asymptomatic heart failure” (priority 2004, dated 2022)
Structures can show the parent of a compound that is named as a salt. Where two headings read alike, the source gives them in different places.

Tests used:
[1] = tested on: Cocker spaniels and Dobermanns with DCM; conditions: for mean survival time / survival time, range: in addition to digoxin, enalapril, furosemide
Description: A double-blind study has been carried out in order to evaluate the long-term efficacy and tolerance to pimobendan and its effect on long-term survival in cocker spaniels and Dobermanns with DCM.
Materials and Methods: Cocker spaniels (n=10) and Dobermanns (n=10) presenting to the Cardiopulmonary Service of the R(D)SVS with DCM were recruited for the study with owners' consent. After stabilization on conventional therapy with digoxin, enalapril, and furosemide, dogs received in addition either pimobendan (Vetmedin®) or placebo using a double-blind study design.

[2] = tested on: dogs with clinically overt heart failure due to valve insufficiency; experiment: Double-blind randomized positive controlled multi-centre field trial, pimobendan versus benazepril; format: in vivo, dog; conditions: for dogs that died or were euthanised due to cardiac reasons: 56-days study period, 41 dogs pimobendan group, 35 dogs benazepril group; for ISACHC classification Ib (Score=2), no clinical symptoms, share of cases / overall efficacy rated as very good or good, share of cases: Day 56; for ISACHC heart failure classification improved, share of cases: after the 56 day treatment period; for median survival time: long-term survival data
Experimental: A double-blind randomized positive controlled multi-centre field trial has been carried out in order to evaluate the clinical efficacy of pimobendan treatment at a daily dose of 0.4-0.6 mg/kg in comparison to an angiotensin-converting-enzyme (ACE) inhibitor treatment with benazepril hydrochloride at a daily dose of approximately 0.25-0.5 mg/kg body weight. Both treatments could be combined with furosemide (up to 8 mg/kg per day) or anti-arrhythmic drugs as appropriate. The study was conducted at 11 centers in Europe by experienced veterinary cardiologists under the rules of Good Clinical Practice (GCP). Mandatory minimum duration of treatment was 56 days for each patient. Dogs were examined on Day 0 prior to first treatment and on Day 7 and 56 after initiation of therapy. In order to obtain long-term survival data, the investigator had the option to continue therapy after Day 56. In the optional study period treatment code for the animal was decoded, as it was not allowed to add pimobendan to the benazepril group, in order to maintain an appropriate […] control group. All other licensed concomitant therapies were allowed. For survival analysis, animals that dropped out or changed treatment due to therapy failure were also rated as dead. However, these cases were statistically evaluated as censored data.
Primary parameter for conclusion on efficacy was the clinical severity of heart failure symptoms, classified according to the recommendations of the International Small Animal Cardiac Health Council (ISACHC). Secondary parameters were exercise tolerance, demeanor, findings of the respiratory and circulatory system, overall efficacy rating, as well as, echocardiography data.
Overall 76 dogs, 41 dogs in the pimobendan group and 35 dogs in the benazepril group were included. […] Mean duration of symptoms prior to inclusion was 4.05 months in the pimobendan and 2.77 months in the benazepril group. There were no clinically relevant differences between the groups prior to initiation of therapy in any of the parameters investigated.
The radiographs have been made in a left to right lateral view. For the determination of cardiac size a vertebral scale system was used.
In the lateral radiographs, the long axis of the heart (L) was measured with a caliper extending from the ventral aspect of the left main stem bronchus (tracheal bifurcation hilus, carina) to the most distant contour of the left ventricular apex. The caliper was repositioned along the vertebral column beginning at the cranial edge of the 4th thoracic vertebra. The length of the heart was recorded as the number of vertebrae caudal of that point and estimated to the nearest 0.1 of a vertebra. The maximum perpendicular short axis (S) was measured in the same manner beginning at the 4th thoracic vertebra.
The length in vertebrae (v) of the long and short axes were then added to obtain a vertebral heart sum (VHS) which provided a single number representing heart size proportionate to the size of the dog. The normal range of VHS in healthy dogs is 8.5 v to 10.5 v (mean of 9.7 v).

[3] = tested on: dogs suffering of occult dilated cardiomyopathy; experiment: Study in dogs with occult dilated cardiomyopathy (ISACHC class I); format: in vivo, dog
Description: A study is done with pimobendan ([…]®) in dogs suffering of occult dilated cardiomyopathy. Inclusion criteria were dogs which are diagnosed to have a congestive heart failure of class I according to the […]-score due to dilated cardiomyopathy (DCM). Dogs having a having an asymptomatic (occult) heart failure, e.g. asymptomatic DCM must have reduced contractility of the heart or other signs of reduced cardiac efficacy such as volume overload or ventricle dilatation as confirmed by echocardiography. The dogs stay under mono-therapy until signs of congestive heart failure are developing, deteriorate to heart insufficiency score ([…]) class II or III a or b. After confirmation of the congestion by X-ray-radiography the dogs receive furosemid treatment or if the clinical or echocardiographic results makes the addition of another heart failure treatment necessary (primary endpoint). The dogs will be investigated at day 0 prior to first treatment and then approximately 3 month post initiation of the therapy. […] An Echo is performed prior to initiation of therapy (Day 0) and at the following visits to support the clinical diagnosis and to evaluate the effect of the drugs on the contractility of the heart. The echocardiography is performed according to the cardiologic case report form for Irish Wolfhounds. The primary parameter investigated will be the heart insufficiency score ([…]). […]

[4] = tested on: human patients with heart failure; conditions: long-term oral use; cited from earlier work
[5] = tested on: dogs with DCM; conditions: dogs with DCM in the LIVE study; cited from earlier work
[6] = Visit 1 (Day 0, prior to first treatment)

SMILES: COc1ccc(-c2nc3ccc(C4=NNC(=O)CC4C)cc3[nH]2)cc1 (stereo not drawn) [pimobendan, 4,5-dihydro-6-[2-(4-methoxyphenyl)-1H-benzimidazol-5-yl]-5-methyl-3(2H)-p-yridazone]
- mean survival time ([1]; Dobermanns with DCM): 280 days
- survival time, range ([1]; Dobermanns with DCM): 42 to 369 days
- NYHA-class status of the patient ([1]; both breeds, addition to standard treatment regimen): significant improvement
- mean survival time ([1]; cocker spaniels with DCM): 612 days
- survival time, range ([1]; cocker spaniels with DCM): 61 to 1428 days
- tolerance / treatment-related adverse effects ([1]; dog, in vivo): well tolerated and no treatment-related adverse effects were noted
- dogs that died or were euthanised due to cardiac reasons [2]: 2 dogs
- ISACHC classification Ib (Score=2), no clinical symptoms, share of cases [2]: 76%
- overall efficacy rated as very good or good, share of cases [2]: 85%
- vertebral heart sum, Max. [2, 6]: 14.5 v
- vertebral heart sum, Mean [2, 6]: 11.83 v
- vertebral heart sum, Median [2, 6]: 11.60 v
- vertebral heart sum, Min. [2, 6]: 9 v
- vertebral heart sum, Max. ([2]; Visit 3 (Day 56)): 14.1 v
- vertebral heart sum, Mean ([2]; Visit 3 (Day 56)): 11.71 v
- vertebral heart sum, Median ([2]; Visit 3 (Day 56)): 11.60 v
- vertebral heart sum, Min. ([2]; Visit 3 (Day 56)): 9.0 v
- change in mean heart size (vertebral heart sum), Mean ([2]; Visit 3-1 (Day 56 minus Day 0)): −0.15 v
- vertebral heart sum, change from baseline, Max. ([2]; Visit 3-1 (Day 56 minus Day 0)): 0.8 v
- vertebral heart sum, change from baseline, Median ([2]; Visit 3-1 (Day 56 minus Day 0)): 0.00 v
- vertebral heart sum, change from baseline, Min. ([2]; Visit 3-1 (Day 56 minus Day 0)): −1.9 v
- ISACHC heart failure classification improved, share of cases [2]: 84%
- median survival time [2]: 430 days
- Left Ventricular Reverse Remodeling (LVRR), share of treated dogs ([3]; dogs with asymptomatic DCM): ~80%
- dogs that went into the state of clinical symptoms (Class II) ([3]; interim analysis after 4 years, mono-therapy): significantly less dogs
- effects on survival [4]: without significantly adverse effects on survival
- exercise tolerance and quality of life [4]: improvement in exercise tolerance and quality of life

SMILES: CCOC(=O)[C@H](CCc1ccccc1)N[C@@H](C)C(=O)N1CCC[C@H]1C(=O)O [enalapril]
- time to treatment failure [5]: 142.8 days

SMILES: CCOC(=O)[C@H](CCc1ccccc1)N[C@H]1CCc2ccccc2N(CC(=O)O)C1=O [benazepril, benazepril hydrochloride]
- dogs that died or were euthanised due to cardiac reasons [2]: 7 dogs
- ISACHC classification Ib (Score=2), no clinical symptoms, share of cases [2]: 48%
- overall efficacy rated as very good or good, share of cases [2]: 41%
- ISACHC heart failure classification improved, share of cases [2]: 56%
- median survival time [2]: 228 days
